One may read the IC50 as the concentration needed to halve the response being measured.

Active and inactive are the calls of the source. How the calls were made is not given here. Numbered stars: 1 amine (or outer) side, 2 acyl side, 3 side chain; on linkers, the order of the positions; unused ones are H or OH. Square brackets hold non-standard residues; d marks the D form. Peptide text beside a SMILES is read from it. ξ: configuration not given here. ξβ3hGly(undecyl) = CCCCCCCCCCCC(CC(=O)[*:2])N[*:1]

This passage reports IC50 results from PubChem BioAssay AID1645867 (Buhrlage Lab, Dana-Farber Cancer Institute and Novartis …, 2021).

Ubiquitin carboxyl-terminal hydrolase isozyme L1 (Homo sapiens), sequence (P09936 whole entry, looked up): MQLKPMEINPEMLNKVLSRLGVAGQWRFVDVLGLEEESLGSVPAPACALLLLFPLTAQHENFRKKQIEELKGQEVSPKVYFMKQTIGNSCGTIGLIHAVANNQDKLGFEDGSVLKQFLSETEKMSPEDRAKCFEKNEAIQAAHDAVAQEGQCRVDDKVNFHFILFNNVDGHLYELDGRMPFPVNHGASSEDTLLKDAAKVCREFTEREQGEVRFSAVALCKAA

The experiment has as its target Ubiquitin carboxyl-terminal hydrolase isozyme L1 (Homo sapiens) (UniProt P09936). Briefly: UCH-L1 deubiquitylase inhibitors, biochemical concentration-response, hit retest (AID 1645867). The note with it: recombinant UCHL1 deubiquitinase activity assay.
`Nc1cccc(C(=O)CC2(O)C(=O)N(Cc3ccc(Cl)cc3)c3ccccc32)c1` (stereo not drawn): the IC50 is > 25 µM (inactive).

As for `CCc1ccc(NC(=O)Cc2nnc3cc(-c4nc(C)no4)ccn23)cc1`, the IC50 is > 25 µM (inactive).

Consider `O=C(C1CCCCC1)N1CCC(c2nc3c(nnn3Cc3cccc(F)c3)c(=O)[nH]2)CC1`, for which the IC50 is > 25 µM (inactive).

For `O=C(c1ccc2cc[nH]c2c1)N1CCC(Nc2cccnc2)C1` (stereo not drawn), the IC50 was > 25 µM (inactive).

As for `Cc1nn(-c2ccc(F)cc2)c(C)c1S(=O)(=O)N1CCN(c2ccccn2)CC1`, the IC50 is > 25 µM (inactive).

As to `C=C/C(C)=C/[C@@]1(C)SC(=O)C(C)=C1O`, the IC50 is 5.87 µM.

On to `Cc1oncc1C(=O)N1CC[C@H]2CO[C@H](CN3CCOCC3)[C@H]2C1`, for which the IC50 is > 25 µM (inactive).

`CCOc1ccc(C(c2c(NC(=O)c3ccccc3)sc(C)c2C)N2CCN(CCO)CC2)cc1` (stereo not drawn): the IC50 is > 25 µM (inactive).

As for `O=c1oc2ccccc2cc1-c1nc(-c2ccc(Oc3ccccc3)cc2)cs1`, the IC50 is > 25 µM (inactive).

With `COc1ccc(OC)c(-c2cn3ccn(-c4ccc(F)c(Cl)c4)c(=O)c3n2)c1`, the IC50 was > 25 µM (inactive).

On to `COc1ccc2c(CNCCC3=CCCCC3)c(C(=O)O)n(Cc3ccc(F)cc3)c2c1`, for which the IC50 was > 25 µM (inactive).

With `O=C(CN1CCOCC1)Nc1ccc(NC(=O)c2ccc(Cl)cc2)cc1`, the IC50 is > 25 µM (inactive).

In the case of `O=C(CS(=O)(=O)c1ccc(F)cc1)Nc1ccc(-c2nc3ccccc3s2)c(O)c1`, the IC50 was > 25 µM (inactive).

Turning to `N#Cc1c(-c2ccc(Cl)cc2)ccn2nc(CCC(=O)O)nc12`, the IC50 was > 25 µM (inactive).

Turning to `COc1ccc(NC(=O)Cn2c(C)cc(=O)n3nc(-c4cccc(C)c4)nc23)cc1`, the IC50 was > 25 µM (inactive).

Regarding `Cc1ccccc1NC(=O)Cn1c(=O)n(-c2ccc(CC(=O)NCCc3ccccc3)cc2)c(=O)c2sccc21`, the IC50 was > 25 µM (inactive).

Turning to `Cc1ccc2[nH]c3c(=O)n(Cc4ccc(N(C)C)cc4)cnc3c2c1`, the IC50 is > 25 µM (inactive).

Take `CC(=O)NS(=O)(=O)c1ccc(NC(=O)/C=C/c2cn(-c3ccccc3)nc2-c2ccccc2)cc1`: the IC50 is > 25 µM (inactive).

On to `CC[C@@H](C(=O)[C@@H](C)[C@@H](O)[C@H](C)CCc1ccc(C)c(O)c1C(=O)O)[C@@H]1O[C@](CC)([C@H]2CC[C@](O)(CC)[C@H](C)O2)C[C@@H]1C`, for which the IC50 is > 25 µM (inactive).

With `COc1cccc(CNc2ccc(-c3nc(-c4ccccc4)no3)nn2)c1`, the IC50 is > 25 µM (inactive).

As to `Brc1ccc(Sc2cnns2)cc1`, the IC50 was > 25 µM (inactive).

For the compound `CSc1ccc([C@H]2[C@@H](C(=O)O)c3ccccc3C(=O)N2Cc2ccc(F)cc2)cc1`, the IC50 was > 25 µM (inactive).

Take `Cc1nc(-c2ccccn2)sc1C(=O)/C=C/c1ccccc1`: the IC50 is > 25 µM (inactive).

As for `O=C1c2ccccc2C(=O)c2c(O)c(O)cc(O)c21`, the IC50 is 1.97 µM.

On to `O=C(Nc1ccc(-c2cn3ccsc3n2)cc1)c1ccc(Cl)c([N+](=O)[O-])c1`, for which the IC50 was > 25 µM (inactive).

On to `Cc1nc(-c2ccc(C(=O)Nc3ccc(F)cc3)cc2)cs1`, for which the IC50 was > 25 µM (inactive).

Turning to `Cc1ccc(C)c(NC(=O)Cn2cc(C(=O)C3CC3)c3ccccc32)c1`, the IC50 was > 25 µM (inactive).

For `Cc1nn(-c2ccccc2)c2c1C1(C(=O)Nc3ccccc31)N1C(=N2)Sc2ccccc21` (stereo not drawn), the IC50 is > 25 µM (inactive).

Turning to `CCN(CC)Cc1ccc(-c2nnc(-c3cnc4onc(C)c4c3)o2)o1`, the IC50 is > 25 µM (inactive).

As to `CC(C)CC1NC(=O)C2CCCN2C1=O` (stereo not drawn), the IC50 was 23.9 µM.

Consider `O=C(c1ccccc1F)c1cc(Cl)ccc1NC(=O)C1CCCO1` (stereo not drawn), for which the IC50 is > 25 µM (inactive).

For `COc1ccc(-c2noc(-c3nnn(CC(=O)Nc4ccc(OC)cc4OC)c3N)n2)cc1`, the IC50 was > 25 µM (inactive).

Regarding `Cc1cc(OCC(=O)Nc2ccc3c(c2)NC(=O)CO3)ccc1Cl`, the IC50 is > 25 µM (inactive).

With `CC(C)(NC(=O)C1CCCCC1)c1nc2c(c(C(N)=O)n1)OCCO2`, the IC50 was > 25 µM (inactive).

`N#Cc1ccc(COC(=O)C(O)(c2ccccc2)c2ccccc2)cc1`: the IC50 was > 25 µM (inactive).

As to `COc1ccc(NC(=O)C2C3C=CC4(O3)C2C(=O)N(CCc2ccccc2)C4C(=O)NC2CCCCC2)cc1` (stereo not drawn), the IC50 was > 25 µM (inactive).

Consider `Cc1ccc(-n2cc(C(=O)NCCCc3ccccc3)nn2)cc1`, for which the IC50 was > 25 µM (inactive).

As to `Cc1c(Cl)cccc1NC(=O)Cn1cc(C(=O)C2CC2)c2ccccc21`, the IC50 is > 25 µM (inactive).

`Fc1cc(F)c2[nH]cc(-c3nnnn3-c3ccc4ccccc4c3)c2c1`: the IC50 was > 25 µM (inactive).

In the case of `O=C(COc1ccc(N2CC(C(=O)NCc3ccccc3)CC2=O)cc1)Nc1ccc(F)cc1` (stereo not drawn), the IC50 is > 25 µM (inactive).

Take `O=C(NC1CC1)c1ccc(OCC2CCCN(C(=O)c3ccccc3)C2)cc1` (stereo not drawn): the IC50 was > 25 µM (inactive).

With `O=C(Nc1nc2c(s1)CN(C(=O)c1cc(-c3ccco3)on1)CC2)C1CCCO1` (stereo not drawn), the IC50 was > 25 µM (inactive).

As to `Cc1ccc2[nH]c(=O)c(-c3nc4ccc(C)cn4c3NCc3ccc(F)cc3)cc2c1`, the IC50 was > 25 µM (inactive).

Regarding `Cc1ccc(C2CC(=O)c3cnc(NCC4CCCO4)nc3C2)cc1` (stereo not drawn), the IC50 was > 25 µM (inactive).

As for `COc1ccc(OC)c2c(C)cc(N3CC(C)CC(C)C3)nc12` (stereo not drawn), the IC50 is > 25 µM (inactive).

On to `COc1cc(OC)cc(N2C(=O)N(CC(=O)c3ccc(Br)cc3)c3ccccc3S2(=O)=O)c1`, for which the IC50 is > 25 µM (inactive).

Consider `Cn1c(=O)c2ncnnc2n(C)c1=O`, for which the IC50 was 16.3 µM.

In the case of `Cc1cc(Nc2ncc(Cl)cc2Cl)n(-c2ccccc2)n1`, the IC50 was > 25 µM (inactive).

As to `Cc1cccc(NC(=O)N2C[C@@H]3c4nccn4-c4ccccc4[C@@H]3C2)c1`, the IC50 is > 25 µM (inactive).

Consider `Cc1cc(C)cc(NC(=O)C2C3C=CC4(O3)C2C(=O)N(C2CCCCC2)C4C(=O)NC2CCCCC2)c1` (stereo not drawn), for which the IC50 is > 25 µM (inactive).

For `O=C(CSc1nc2cc(C(F)(F)F)ccc2s1)NCC(=O)c1ccccc1`, the IC50 was > 25 µM (inactive).

As to `O=C(Cn1nc2c3c4c(sc3ncn2c1=O)CCCCC4)Nc1ccc(Cl)cc1F`, the IC50 is > 25 µM (inactive).

`CCCCCCCCCCCC1CC(=O)NC(CC(N)=O)C(=O)NC(Cc2ccc(O)cc2)C(=O)NC(CC(N)=O)C(=O)NC(CCC(N)=O)C(=O)N2CCCC2C(=O)NC(CC(N)=O)C(=O)NC(CO)C(=O)N1` (stereo not drawn) (cyclo([ξβ3hGly(undecyl)]NYNQPNS); configuration not given here): the IC50 was > 25 µM (inactive).

On to `CCOc1ccc(-n2ccnc(SCC(=O)Nc3ccccc3F)c2=O)cc1`, for which the IC50 is > 25 µM (inactive).

Take `COc1c(O)cc(CC(=O)O)c(C(C)=O)c1O`: the IC50 is 9.26 µM.

With `CN(Cc1ccccc1)S(=O)(=O)c1ccc2[nH]c(=O)[nH]c2c1`, the IC50 is > 25 µM (inactive).

For the compound `O=C1CC(c2ccco2)Cc2[nH]c(=O)c(-c3nc(-c4ccc(Cl)cc4)cs3)cc21` (stereo not drawn), the IC50 is > 25 µM (inactive).

In the case of `CC(OC(=O)c1cccc(N(C)C)c1)C(=O)Nc1ncc(Cl)cc1Cl` (stereo not drawn), the IC50 is > 25 µM (inactive).
